tested on: CPB; experiment: not given; conditions: Schütz et al. (1997); cited from earlier work

Molecule	attraction of CPB to leaves sprayed with paraffin solutions (in words)
benzene methanol	attractive
CCCCCCCCC=O [nonanal]	reduced attraction
C=C1CC/C=C(\C)CC[C@@H]2[C@@H]1CC2(C)C [β-caryophyllene]	attractive
C=CC(=C)CCC=C(C)C [β-myrcene]	reduced attraction
OCCc1ccccc1 [2-benzene-ethanol]	attractive
CCCCC/C=C\CCO [(Z)-3-nonen-1-ol]	reduced attraction
C=CC(C)(O)CCC=C(C)C (stereo not shown) [linalool]	attractive

tested on: Colorado potato beetle (CPB) adults; experiment: open Y-track olfactometer dual choice bioassay, adult beetles; type: in vivo, Leptinotarsa decemlineata; conditions: not given
Text: Insects: Adult Colorado potato beetles (CPB) were obtained from a laboratory colony which was annually infused with feral insects. CPB were maintained on potato, S. tuberosum cultivar Kennebeck, for both larval and adult stages. Upon emergence, adults were sexed; individual insects were kept in plastic containers with fresh potato foliage and water until use six to 12 days post emergence. Prior to testing, CPB were starved for two to three hours. Experimental insects were used only once.
Odorous blends tested are described in Table 3.
Plant stimuli consisted of 4.8 g of leaves from mature plants that were mechanically-damaged using scissors to make incisions ca. 1 cm in length at ca. 1 cm intervals around the circumference of leaves. Foliage used in the study were, potato, S. tuberosum cultivar Kennebeck (Solanaceae); tomato, Lycopersicon esculentum Mill cultivar Pik Red (Solanaceae); and soybean, Glycines maxcultivar Williams (Leguminaceae).
Experimental protocol: Chemical blends and plant foliage were tested for behavioral activity in an open Y-track olfactometer modified after Visser et al. (Visser, J. H., et al., Proceedings of the Section Experimental and Applied Entomology of the Netherlands Entomological Society Amsterdam, 9: 41-46 (1998); and described in detail by Dickens (Dickens, J. C., Agricultural and Forest Entomology, 1: 47-54 (1999)). In brief, odorous stimuli emanating from synthetic blends on filter paper discs (2.5 cm dia., Whatman™ #1 filter paper) or mechanically-damaged plant foliage in Ehrlenmeyer flasks were delivered to either side of the device. For each blend, a total amount of 25 μl of neat chemicals were diluted in 1 ml of mineral oil (25 μg total chemicals/μl mineral oil). […]
Statistical analysesLaboratory bioassays were assessed for significant differences by the hypothesis on binomial proportions based on the standard normal approximation (Brase, C. H., et al., Understanding Statistics, D. C. Heath and Co., Lexington, Mass., XIV +489 pp. (1983)).

Molecule	behavioral response of CPB to treatment versus control (in words)
C=CC(C)(O)CCC=C(C)C (single isomer, unassigned; (+)) [XV, (+)-linalool]	unattractive
CC/C=C\CCOC(C)=O [XIV, (Z)-3-hexenyl acetate]	unattractive
COC(=O)c1ccccc1O [XVI, methyl salicylate]	unattractive

— patent publication US6479046B2, “Attractants and repellants for colorado potato beetle” (priority 2000, dated 2002)
